# According to the NIST ThermoML archive (doi:10.1016/j.jct.2014.01.028):
# ± gives the expanded uncertainty stated by the source.
# Settings: for electrical conductivity / mass density / viscosity: 101.33 kPa, Liquid; for electrical conductivity: Alternating current cell with electrodes; for mass density: Pycnometric method; for viscosity: Capillary tube (Ostwald / Ubbelohde) method; for Glass transition temperature: DTA
electrical conductivity (293.15 K) [S/m],mass density (293.15 K) [kg/m3],electrical conductivity (303.15 K) [S/m],viscosity (303.15 K) [mPa·s],mass density (303.15 K) [kg/m3],electrical conductivity (313.15 K) [S/m],viscosity (313.15 K) [mPa·s],mass density (313.15 K) [kg/m3],electrical conductivity (323.15 K) [S/m],viscosity (323.15 K) [mPa·s],mass density (323.15 K) [kg/m3],electrical conductivity (333.15 K) [S/m],viscosity (333.15 K) [mPa·s],mass density (333.15 K) [kg/m3],electrical conductivity (343.15 K) [S/m],viscosity (343.15 K) [mPa·s],mass density (343.15 K) [kg/m3],Glass transition temperature [°C],viscosity (293.15 K) [mPa·s],Compound
0.0266 ± 0.0008,1177.4 ± 3.7,0.0686 ± 0.0022,3058 ± 220,1172.8 ± 3.7,0.146 ± 0.0047,1003 ± 64,1166.9 ± 3.7,0.283 ± 0.009,427.1 ± 22,1158.7 ± 3.7,0.498 ± 0.016,206.3 ± 9.1,1154.3 ± 3.7,0.955 ± 0.03,111.5 ± 4.6,1148.9 ± 3.7,-54.34 ± 2,,C[n+]1ccn(CCCCn2cc[n+](C)c2)c1.c1c[n-]cn1.c1c[n-]cn1
0.0111 ± 0.00035,1210.8 ± 3.9,0.0309 ± 0.00098,6306 ± 530,1206 ± 3.9,0.0684 ± 0.0022,2538 ± 180,1200 ± 3.9,0.145 ± 0.0046,854.7 ± 52,1191.5 ± 3.9,0.254 ± 0.0081,440.2 ± 22,1185.7 ± 3.9,0.425 ± 0.013,145.1 ± 8.2,1178.9 ± 3.9,-56.18 ± 2,,C[n+]1ccn(CCn2cc[n+](C)c2)c1.c1c[n-]cn1.c1c[n-]cn1
0.000168 ± 5e-06,1301 ± 4.5,0.000636 ± 2e-05,8896 ± 790,1295.7 ± 4.5,0.00229 ± 7e-05,3632 ± 280,1289.8 ± 4.5,0.00646 ± 0.00021,1255 ± 82,1283.7 ± 4.5,0.0174 ± 0.00055,615.2 ± 34,1278.1 ± 4.5,0.0391 ± 0.0013,290.4 ± 14,1272.3 ± 4.4,-54.01 ± 2,,C[n+]1ccn(CCO)c1.c1c[n-]cn1 [1-(2-hydroxyethyl)-3-methylimidazolium imidazolide]
0.0842 ± 0.0027,1148.4 ± 3.5,0.166 ± 0.0053,98.4 ± 4,1143.1 ± 3.5,0.304 ± 0.0097,54.5 ± 2,1137.5 ± 3.5,0.504 ± 0.016,32.1 ± 1.2,1131.8 ± 3.5,0.738 ± 0.024,19.9 ± 0.7,1126.3 ± 3.5,1.09 ± 0.035,13.7 ± 0.5,1120.8 ± 3.5,-55.02 ± 2,220 ± 9.6,C[n+]1ccn(CCCN)c1.c1c[n-]cn1 [1-(3-aminopropyl)-3-methylimidazolium imidazolide]
0.0737 ± 0.0023,1085.3 ± 3.2,0.15 ± 0.0048,272.6 ± 13,1079.9 ± 3.2,0.284 ± 0.009,140 ± 6,1073.2 ± 3.2,0.481 ± 0.015,76.8 ± 2.9,1066.5 ± 3.2,0.713 ± 0.023,47.5 ± 1.7,1060.4 ± 3.2,1.01 ± 0.032,34 ± 1.2,1054.1 ± 3.2,-56.01 ± 2,533.3 ± 28,CCCCn1cc[n+](C)c1.c1c[n-]cn1 [1-butyl-3-methylimidazolium imidazolide]
0.27 ± 0.0086,1113.5 ± 3.3,0.487 ± 0.015,87.9 ± 3.5,1106.7 ± 3.3,0.804 ± 0.026,42.4 ± 1.6,1100.3 ± 3.3,1.24 ± 0.039,22.9 ± 0.9,1092.5 ± 3.3,1.69 ± 0.054,14.8 ± 0.5,1086.3 ± 3.3,2.11 ± 0.067,8.6 ± 0.3,1079.7 ± 3.3,-60.01 ± 2,191.8 ± 8.1,CCn1cc[n+](C)c1.c1c[n-]cn1 [1-ethyl-3-methylimidazolium imidazolide]
